Test [1] addresses T1, CX3CR1 (Homo sapiens, UniProt P49238).
T1 sequence (P49238 1-355): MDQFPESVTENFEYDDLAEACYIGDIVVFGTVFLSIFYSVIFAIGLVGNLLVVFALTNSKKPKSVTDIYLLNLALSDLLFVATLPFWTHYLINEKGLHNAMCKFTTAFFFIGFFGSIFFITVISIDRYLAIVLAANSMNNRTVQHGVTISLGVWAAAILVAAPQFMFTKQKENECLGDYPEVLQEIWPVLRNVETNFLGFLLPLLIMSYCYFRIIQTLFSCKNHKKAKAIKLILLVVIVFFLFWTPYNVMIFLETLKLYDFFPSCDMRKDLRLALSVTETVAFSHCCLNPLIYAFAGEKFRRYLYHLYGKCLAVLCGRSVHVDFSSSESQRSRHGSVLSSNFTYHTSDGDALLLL
The experiment in a line: 125I-CX3CL1 competition binding, CHO-hCX3CR1 membranes. On the set-up: host or cells: CHO-K1. How it is done: (§1) Adherent CHO-K1 cells stably expressing human CX3CR1 (CHO-hCX3CR1) were grown in F12 medium with GlutaMAX, 10% FBS (Sigma–Aldrich) and 400 μg·ml^−1 geneticin and harvested at 80% confluency. Cells were washed in PBS and lysed with an Ultra-Turrax Homogenizer in 50 mM Tris/HCl (pH 7.4) and 1 mM EDTA with Complete™ protease inhibitor (Roche). […] Protein concentration was determined using the BCA method (Thermo Fisher Scientific). […] The filter plate was washed in ice-cold 25 mM HEPES (pH 7.4), 5 mM MgCl2, 1 mM CaCl2 and 500 mM NaCl and dried at 50°C for 1 h. Scintillation cocktail, Optiphase Supermix (PerkinElmer) was added to each well and the radioactivity was measured using a MicroBeta Trilux reader (PerkinElmer). All analysis and calculations were performed using GraphPad Prism 6.01. Functional and competition binding data were analysed using non-linear regression and fitted to a sigmoidal dose-response with variable slope according to the following equation: […] where Y is the amount of radioligand bound (cpm) or functional effect, Top denotes maximal asymptotic binding, and Bottom denotes the minimal asymptotic binding. XC50 is either the EC50 or the IC50 value, and X is the logarithm of the test compound concentration. Ki values were calculated from IC50 values using the Cheng–Prusoff equation: […]

In a further test the target is T2, CX3CR1 (RPMI-8226 cells) (Homo sapiens, UniProt P49238).
T2 construct: RPMI-8226 cells, a human B-lymphocyte cell line endogenously expressing human CX3CR1; CCL-155; host or cells: RPMI-8226
T2 sequence (P49238 1-355): T1 sequence (P49238 1-355)
The experiment in a line: Dynamic mass redistribution (DMR), RPMI-8226 cells. The test is classed as cell-based. How it is done:
CHO-hCX3CR1 cells were seeded at 12000 cells per well in DMEM with 10% FBS and RPMI-8226 cells at 8000 cells per well in RPMI 1640 medium with GlutaMAX and 20% FBS on 384-well fibronectin-coated EPIC™ biosensor plates (Corning) and cultured at 37°C for 24 h. At 18–24 h prior to compound treatment, the medium was replaced with serum-free medium with or without 100 ng·ml^−1 PTX. Cells were then washed with assay buffer (HBSS, 20 mM HEPES (pH 7.4) and 0.01% BSA) and allowed to equilibrate at 26°C for 1 h inside the EPIC™ plate reader. Following equilibration, a baseline scan was performed before adding AZD8797 or CX3CL1 using a CyBi-Well vario (CyBio). Dynamic mass redistribution (DMR) was then measured during a 60 min scan. As in the [^35S]GTPγS binding assay, the final DMSO concentration was held constant at 1%.

Test [2] addresses T1, CX3CR1. The experiment in a line: [3H]AZD8797 competition binding, CHO-hCX3CR1 membranes. On the set-up: host or cells: CHO-K1. The conditions noted are these: 2 nM [3H]AZD8797, n=7. How it is done: as §1
For test [3], the target named is T3, CX3CR1 (RPMI-8226 cells endogenously expressing human CX3CR1) (Homo sapiens, UniProt P49238).
T3 construct: RPMI-8226 cells, a human B-lymphocyte cell line endogenously expressing human CX3CR1; CCL-155; host or cells: RPMI-8226
T3 sequence (P49238 1-355): T1 sequence (P49238 1-355)
The experiment in a line: Cellix flow adhesion of RPMI-8226 cells to full-length CX3CL1. The format is cell-based. The conditions noted are these: flow 0.5 dyn·cm^−2, 15 min pre-incubation, n=3; read-out: IC50, prevention of capture (adhesion) of RPMI-8226 cells to CX3CL1. How it is done:
(§2) Adhesion of a human B-lymphocyte cell line (RPMI-8226) or hWB leucocytes to full-length human CX3CL1 were monitored using a microfluidics Cellix VenaFlux platform and Vena 8 Biochips (Cellix). Each channel on the Vena 8 chip was coated with anti-His monoclonal antibody (R&D Systems) followed by His-tagged full-length CX3CL1 (R&D Systems) and blocked for non-specific binding (NSB) with BSA.
(§3) Cell preparations: RPMI-8226 cells were cultured in RPMI 1640 medium with GlutaMAX and 20% FBS (HyClone, Perbio). Before the experiment, cells were centrifuged at 320 g and resuspended to 5 ×10^6 cells·ml^−1 in RPMI 1640 with 1% FBS. hWB with heparin as anti-coagulant was collected from healthy donors and 5 μM DiOC6 was added. AZD8797 was diluted in a 3-fold series in DMSO starting at 3.3 or 30 μM and pre-incubated with RPMI-8226 cells for 15 min or whole blood for 60 min. DMSO concentration held constant for all AZD8797 concentrations (0.1% for the RPMI-8226 experiments and 0.3% for the whole blood experiments). […]
(§4) RPMI-8226 cells in RPMI 1640+1% FBS or whole blood were pumped through the channels at 0.5 dyn·cm^−2 and 2.25 dyn·cm^−2 respectively, for 3 min. Images for quantification were captured using a microscope. Cells adhering to channels were counted and the mean values across five images in each channel were used for calculating the concentration–response curves.

Test [4] concerns the target T4, CX3CR1 (human whole blood leucocytes) (Homo sapiens, UniProt P49238).
T4 construct: hWB with heparin as anti-coagulant was collected from healthy donors; from tissue; host or cells: human whole blood leucocytes (healthy volunteers)
T4 sequence (P49238 1-355): T1 sequence (P49238 1-355)
The experiment in a line: Cellix flow adhesion of hWB leucocytes to full-length CX3CL1. The format is cell-based. Conditions: flow 2.25 dyn·cm^−2, 60 min pre-incubation, n=2, read-out: IC50, prevention of capture (adhesion) of human blood leucocytes to CX3CL1. How it is done: as §2, §3, §4

The target in test [5] is T1, CX3CR1. The experiment in a line: 125I-CX3CL1 competition assay, HEK293 cells co-transfected with Gqi5-protein (Karlstrom et al.). The format is binding. Further details: host or cells: CHO-K1. The conditions noted are these: HEK293 Gqi5 vs CHO-hCX3CR1 membranes.

Several values for one entry are separate records, joined by “and”; a condition that tells them apart may be missing. Identical values can stand only once.

For the compound `CC(C)C[C@H](CO)Nc1nc(S[C@@H](C)c2ccccc2)nc2nc(N)sc12` [AZD8797], the “Lower potency than unlabelled CX3CL1 in displacing 125I-CX3CL1” value at CX3CR1 [1] turned out to be 1000 fold. Moreover, the EC50 at CX3CR1 [1] (10 pM 125I-CX3CL1, n=3, read-out: EC50, displacement of 125I-CX3CL1) is 310 nM; on CX3CR1 (RPMI-8226 cells) (n=3), 410 nM. Besides, the “Effect of PTX treatment on DMR signal” value at CX3CR1 (RPMI-8226 cells) (100 ng·ml^−1 PTX) was “reduced”. The same compound showed a Ki on CX3CR1 [2] of 7.3 nM. In addition, the IC50 in test [3] is 6 nM and 5.8 nM; in test [4], 330 nM. The “Higher affinity than in this paper's 125I-CX3CL1 competition assay” value at CX3CR1 [5] is listed as ~100 fold.

The term EC50 denotes the midpoint of the concentration-response curve. As a reminder, the Ki is the dissociation constant of the complex between target and ligand, obtained from inhibition or displacement. By IC50 is commonly meant the midpoint of a concentration-inhibition curve.

The record behind these values is publication PMC4764977, “AZD8797 is an allosteric non-competitive modulator of the human CX3CR1 receptor” (Biochemical Journal, 2016).
